Source: publication PMC3706879, “The neurotrophic compound J147 reverses cognitive impairment in aged Alzheimer's disease mice” (Alzheimer's Research & Therapy, 2013)

Experiments:
mice [1] = settings: mouse, in vivo
MDRI-MDCK = settings: MDCK-MDR1
mice [2] = experiment: feeding throughout pregnancy to mice; format: in vivo; settings: 10 mg/kg/day throughout pregnancy
hERG = hERG (Homo sapiens, UniProt Q12809)
CYP450 3A4 = CYP450 3A4 (Homo sapiens, UniProt P08684)
Aβ plaques = experiment: immunohistochemistry (6E10) of amyloid plaques in hippocampus of aged huAPP/PS1 mice; format: in vivo
Method: Brains were fixed with 4% paraformaldehyde in 100 mM sodium tetraborate, pH 9.5, for 3 h, cryoprotected with 20% sucrose-potassium-PBS (KPBS), and sectioned into coronal (30 μm) sections using a sliding microtome (Leica Microsystems Inc, Buffalo Grove, IL, USA). Sections were submerged in 0.3% H2O2 for 10 minutes to eliminate endogenous peroxidase activity and treated with 1% borate to eliminate free paraformaldehyde. Sections were incubated with primary antibody in 0.3% Triton X-100 in KPBS plus 2% filtered serum or BSA overnight at 4°C, and with […] (1:1,000) in 0.3% Triton X-100 for 1 hr at room temperature. After incubation with secondary antibody and ABC reagent (Vector Laboratories Inc, Burlingame, CA, USA), sections were developed using metal-enhanced DAB solution. Sections were mounted to slides, dried, dehydrolyzed, treated with xylene, and covered using permount (Fisher Scientific, Pittsburgh, Pennsylvania, USA). […]
Quantification of amyloid plaque burden was based on the image captured by immunohistochemical staining with antibody 6E10. Sections of each mouse cortex and hippocampus were imaged together and the areas and densities of the plaques in the hippocampus only were measured by the Image J software (NIH). The total counts of Aβ plaques in sections per six mouse brains of each group were determined in an unbiased fashion.

Aβ1-40 and Aβ1-42 = experiment: Aβ ELISA of hippocampus of aged huAPP/PS1 mice; format: in vivo; settings: three months J147
Method: (§1) The APPswe/PS1ΔE9 transgenic mice have been previously characterized. The line 85 mice carry two transgenes, the mouse/human chimeric APP/Swe, linked to Swedish FAD and human PS1ΔE9. At 20 months of age both male and female transgenic mice were fed a high fat diet (Harlan Tekland, Madison, WI, USA) with and without J147 (200 ppm, 10 mg/kg/day). Treatment continued for three months and was followed by behavior testing and sacrifice of mice for tissue harvesting. […] (Data not shown).
(§2) Hippocampal and entorhinal cortex tissue samples were homogenized in 10 volumes of RIPA lysis buffer (50 mM Tris, pH 7.5, 150 mM NaCl, 0.1% sodium dodecyl sulfate and 0.5% deoxycholate, and 1% NP40) containing a cocktail of protease and phosphatase inhibitors ([…] each of pepstatin A, aprotinin, phosphoramidon, and leupeptin; 0.5 mM 4-(2-aminoethyl) benzenesulfonyl fluoride hydrochloride; 1 mM EGTA; 5 mM fenvalerate; and 5 mM cantharidin). Samples were sonicated (2 × 10 s) and centrifuged at 100,000 × g for 60 minutes at 4°C. Protein concentrations in the cell extracts were determined using the BCA protein assay (Pierce supplied by Thermo Fisher Scientific, Rockford, IL, USA). Equal amounts of protein were solubilized in 2.5x SDS-sample buffer, separated on 12% SDS-polyacrylamide gels, transferred to Immobulin P and immunoblotted with the antibodies indicated in the Materials section. For Western blots, protein levels were normalized to actin levels. An unpaired t test was performed to compare between two groups at a single time point. When comparing multiple groups, one-way ANOVA followed by a Tukey's post hoc test was used. All statistical analysis was conducted using GraphPad Instat software.
Aβ 1 to 40 and 1 to 42 levels in hippocampal lysate were analyzed using the Aβ1-40 and Aβ1-42 ELISA kits from Invitrogen (# KHB3481 and # KHB3442, respectively). All kit reagents were brought to room temperature before use. Standards were prepared according to the manufacturer's guidelines and samples were diluted as follows; RIPA fractions were diluted 1:10 for both Aβ1-40 and Aβ1-42; and RIPA insoluble fractions were diluted 1:2,000 for Aβ1-40 and 1:5,000 for Aβ1-42. A total of 50 μl of Aβ peptide standards and samples were added in duplicate to 96-well plates pre-coated with mAb to the NH2 terminus region of Aβ. Plates were incubated at 4°C overnight and then 50 μl of Hu Aβ40 or Aβ42 detection antibody was added to each well except the chromogen blanks. […] Stop solution was then added at 100 μl to each well followed by reading the absorbance of each well at 450 nm. […] The concentrations of the samples were calculated from the standard curve and multiplied by the dilution factor.

[3] = pharmacokinetic profile in mice, per oral administration (Pharmaron); format: in vivo, CD1 Mice
Method: The pharmacokinetics of J147 in the mouse brain and plasma were evaluated using standard procedures. Blood and brain distribution of J147 following per oral (PO) administration was plotted for mice as a function of time (Figure 5). […] Additional de-risking and target identification screens were carried out at 10 μM J147 by various CROs (Table 2). […] All original data are available upon request.
Figure 5 Pharmacokinetic profile of J147 in mice. (A) The pharmacokinetic profile of J147 in mice was done by Pharmaron (Louisville, KY, USA). Plasma (B) and brain (C) distribution of J147 was plotted as a function of time following or per oral (PO) administration at 20 mg/kg.

[4] = test system: BACE, APP, NGF, BDNF, Homer-1, Egr3, phosphorylated CREB; experiment: Western blotting of hippocampal or entorhinal cortex tissue of aged huAPP/PS1 mice; format: in vivo
Method: as §1, §2

[5] = hippocampus, vs control huAPP/PS1 mice

hERG, sequence (Q12809 whole entry): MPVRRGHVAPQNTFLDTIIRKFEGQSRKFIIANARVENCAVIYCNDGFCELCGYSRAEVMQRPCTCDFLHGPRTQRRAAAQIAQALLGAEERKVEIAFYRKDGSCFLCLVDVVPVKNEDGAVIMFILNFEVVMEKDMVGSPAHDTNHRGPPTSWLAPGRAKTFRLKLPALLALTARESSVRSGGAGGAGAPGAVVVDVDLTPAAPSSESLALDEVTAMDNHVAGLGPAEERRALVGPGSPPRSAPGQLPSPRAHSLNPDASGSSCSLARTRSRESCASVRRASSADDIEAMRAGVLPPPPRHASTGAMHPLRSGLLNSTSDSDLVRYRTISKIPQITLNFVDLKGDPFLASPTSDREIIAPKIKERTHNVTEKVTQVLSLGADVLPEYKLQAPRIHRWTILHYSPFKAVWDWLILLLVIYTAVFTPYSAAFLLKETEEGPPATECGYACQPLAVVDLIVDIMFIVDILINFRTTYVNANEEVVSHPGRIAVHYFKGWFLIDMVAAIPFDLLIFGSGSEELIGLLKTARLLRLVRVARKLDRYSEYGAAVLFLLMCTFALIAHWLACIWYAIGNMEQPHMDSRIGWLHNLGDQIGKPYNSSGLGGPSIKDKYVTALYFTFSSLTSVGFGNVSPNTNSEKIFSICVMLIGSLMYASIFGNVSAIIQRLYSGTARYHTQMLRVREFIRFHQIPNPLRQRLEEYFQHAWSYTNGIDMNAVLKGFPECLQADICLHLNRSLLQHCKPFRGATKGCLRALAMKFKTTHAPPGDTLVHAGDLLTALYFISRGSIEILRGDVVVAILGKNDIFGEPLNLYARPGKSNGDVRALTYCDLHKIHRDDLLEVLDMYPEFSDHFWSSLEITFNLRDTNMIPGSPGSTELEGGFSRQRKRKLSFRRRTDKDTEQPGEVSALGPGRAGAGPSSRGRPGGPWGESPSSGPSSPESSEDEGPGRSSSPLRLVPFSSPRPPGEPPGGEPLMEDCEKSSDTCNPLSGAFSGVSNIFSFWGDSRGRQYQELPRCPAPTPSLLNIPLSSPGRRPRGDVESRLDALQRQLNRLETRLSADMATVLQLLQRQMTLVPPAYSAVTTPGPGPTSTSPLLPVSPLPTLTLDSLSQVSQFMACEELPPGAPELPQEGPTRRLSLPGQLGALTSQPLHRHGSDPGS
CYP450 3A4, sequence (P08684 whole entry): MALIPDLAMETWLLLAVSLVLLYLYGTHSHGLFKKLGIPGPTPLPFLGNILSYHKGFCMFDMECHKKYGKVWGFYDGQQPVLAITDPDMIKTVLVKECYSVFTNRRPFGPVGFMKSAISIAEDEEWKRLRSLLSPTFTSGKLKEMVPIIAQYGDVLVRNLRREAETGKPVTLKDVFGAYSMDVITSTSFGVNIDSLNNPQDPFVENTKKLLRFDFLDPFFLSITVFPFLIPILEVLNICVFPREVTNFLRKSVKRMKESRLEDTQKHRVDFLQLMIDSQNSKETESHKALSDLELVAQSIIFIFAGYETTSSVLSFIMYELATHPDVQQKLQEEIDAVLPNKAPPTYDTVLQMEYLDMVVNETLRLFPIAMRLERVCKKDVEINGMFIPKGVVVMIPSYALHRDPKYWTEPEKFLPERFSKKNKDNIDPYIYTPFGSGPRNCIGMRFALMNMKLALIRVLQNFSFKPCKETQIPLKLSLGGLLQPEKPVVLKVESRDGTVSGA

COc1cccc(/C=N/N(C(=O)C(F)(F)F)c2ccc(C)cc2C)c1 [J147, (E)-N-(2,4-dimethylphenyl)-2,2,2-trifluoro-N'-(3methoxybenzyli-dene) acetohydrazide]
addiction (mice [1]): no addiction | MDRI-MDCK brain transport rates classification (BBB penetration) (MDRI-MDCK): High | offspring after feeding throughout pregnancy (mice [2]): normal | hERG assay (hERG): negative | CYP450 3A4 assays (CYP450 inhibition) (CYP450 3A4): negative | plaque number and size (Aβ plaques): no difference in either plaque number or size | Aβ1-40 levels, RIPA insoluble fraction (Aβ1-40 and Aβ1-42): reduced | Aβ1-42 levels, RIPA insoluble fraction (Aβ1-40 and Aβ1-42): not altered | RIPA soluble Aβ1-40 (Aβ1-40 and Aβ1-42): decreased | RIPA soluble Aβ1-42 (Aβ1-40 and Aβ1-42): decreased | brain levels ([3]; at 2 h after a single dose of 20 mg/kg in mice): about 600 nM | half life ([3]; brain, mice, PO): 2.5 h | bioavailability following oral administration ([3]; mice, PO): 28% | half life ([3]; plasma, mice, PO): 1.5 h | brain to blood ratio ([3]; single dose of 20 mg/kg in mice): approximately 0.5 | protein level of β-secretase (BACE) ([4]; RIPA soluble fraction, hippocampus, vs untreated AD mice): significantly reduced | phosphorylated CREB ([4]; entorhinal cortex): significantly increased | mature BDNF protein level ([4]; hippocampus): increase | proBDNF protein level ([4]; hippocampus): increase | ratio of pro- to mature BDNF ([4]; hippocampus): decreased | ratio of proNGF to mature NGF ([4]; hippocampus): decreased significantly | Egr3 level ([4]; hippocampus, aged AD mice): significantly increased | Homer-1 levels ([4]; hippocampus, aged AD mice): significantly increased | mature NGF level [4, 5]: increases | proNGF level [4, 5]: increases | APP protein levels ([4]; soluble fractions of hippocampus, vs control AD mice): significantly increased
